Assay results reported in BindingDB's records for doi:10.1124/jpet.104.081711 (Taisho Pharmaceutical, 2005).
pKi: −log10 of the molar value.

Legend:
[1] = biological target: Melanin-concentrating hormone receptor 1 (Homo sapiens, UniProt Q99705)
[2] = biological target: 5-hydroxytryptamine receptor 2B (Homo sapiens, UniProt P41595)
[3] = biological target: T1, 5-hydroxytryptamine receptor 1A (Homo sapiens, UniProt P08908)
T1 sequence (P08908 whole entry): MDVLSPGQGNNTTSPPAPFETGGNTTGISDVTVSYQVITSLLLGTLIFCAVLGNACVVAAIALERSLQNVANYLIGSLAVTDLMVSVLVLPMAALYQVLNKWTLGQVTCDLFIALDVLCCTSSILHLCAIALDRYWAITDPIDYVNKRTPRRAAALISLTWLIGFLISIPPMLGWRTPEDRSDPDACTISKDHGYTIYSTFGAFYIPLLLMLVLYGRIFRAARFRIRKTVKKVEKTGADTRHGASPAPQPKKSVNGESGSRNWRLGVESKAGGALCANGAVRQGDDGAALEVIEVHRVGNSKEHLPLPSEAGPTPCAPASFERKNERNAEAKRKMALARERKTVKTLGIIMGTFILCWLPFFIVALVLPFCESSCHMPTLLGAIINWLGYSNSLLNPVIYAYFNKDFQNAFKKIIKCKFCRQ

5-hydroxytryptamine receptor 2B, sequence (P41595 whole entry): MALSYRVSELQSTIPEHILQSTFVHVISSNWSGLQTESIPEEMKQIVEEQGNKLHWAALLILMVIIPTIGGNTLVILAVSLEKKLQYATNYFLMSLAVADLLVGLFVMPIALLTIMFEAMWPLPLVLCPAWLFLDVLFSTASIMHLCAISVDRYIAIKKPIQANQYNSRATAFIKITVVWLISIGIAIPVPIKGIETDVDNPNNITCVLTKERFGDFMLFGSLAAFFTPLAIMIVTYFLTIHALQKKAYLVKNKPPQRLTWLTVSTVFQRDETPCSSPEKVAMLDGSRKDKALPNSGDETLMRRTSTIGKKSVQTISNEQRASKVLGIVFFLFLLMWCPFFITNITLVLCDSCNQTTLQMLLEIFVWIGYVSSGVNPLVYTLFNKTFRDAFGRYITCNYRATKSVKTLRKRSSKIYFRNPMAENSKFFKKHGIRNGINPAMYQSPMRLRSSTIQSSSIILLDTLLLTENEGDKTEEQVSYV
Melanin-concentrating hormone receptor 1, sequence (Q99705 as listed by the source): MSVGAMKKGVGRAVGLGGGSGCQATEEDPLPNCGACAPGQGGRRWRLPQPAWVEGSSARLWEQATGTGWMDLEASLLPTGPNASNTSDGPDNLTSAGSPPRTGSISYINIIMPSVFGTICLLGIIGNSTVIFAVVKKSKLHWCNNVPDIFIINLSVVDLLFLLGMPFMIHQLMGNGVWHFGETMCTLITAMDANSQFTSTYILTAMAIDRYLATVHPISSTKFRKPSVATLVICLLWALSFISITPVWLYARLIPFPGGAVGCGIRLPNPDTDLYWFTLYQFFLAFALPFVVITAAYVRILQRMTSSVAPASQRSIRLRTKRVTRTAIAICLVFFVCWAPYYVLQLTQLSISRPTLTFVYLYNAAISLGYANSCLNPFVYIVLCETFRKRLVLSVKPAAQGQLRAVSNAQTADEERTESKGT

pKi [1] | pKi [2] | pKi [3] | SMILES
7.80 | 6.58 |  | CN(C)c1nc(N[C@H]2CC[C@@H](NCCc3ccc(Br)cc3OC(F)(F)F)CC2)nc2ccccc12 [CAS_510732-84-0]
 | 8.02 | 7.77 | CN(C)c1nc(N[C@H]2CC[C@@H](NC(=O)c3ccc(F)c(F)c3)CC2)nc2ccccc12 [ATC0175]
